One experiment deals with T1, NEP enzyme (Homo sapiens, UniProt P08473).
T1 construct: purchased R&D Systems, Minneapolis, Minn; 1182-ZN
Put plainly: NEP enzyme inhibition assay (fluorogenic peptide substrate). As to conditions: values given as lower bounds; * = prodrugs, may not exhibit NEP activity in an in vitro assay; read-out: NEP pIC50 (converted). The format is biochemical. The essentials: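 Recombinant human NEP was run with Mca-BK2 (10 μM) at room temperature in Tris buffer with 1 μM Zn. Compounds (10 μM–20 pM, 12 points) were pre-equilibrated 10 min, then reacted 20 min and acid-stopped. Fluorescence ex 320/em 405 nm, one-site competition fit gives pIC50. Thiol compounds may be pre-treated with 400 μM TCEP.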

For a further experiment, the target named is T2, human AT1 receptor (Homo sapiens, UniProt P30556).
T2 construct: expressed in transfected cells; host or cells: CHO-K1
T2 sequence (P30556 1-359): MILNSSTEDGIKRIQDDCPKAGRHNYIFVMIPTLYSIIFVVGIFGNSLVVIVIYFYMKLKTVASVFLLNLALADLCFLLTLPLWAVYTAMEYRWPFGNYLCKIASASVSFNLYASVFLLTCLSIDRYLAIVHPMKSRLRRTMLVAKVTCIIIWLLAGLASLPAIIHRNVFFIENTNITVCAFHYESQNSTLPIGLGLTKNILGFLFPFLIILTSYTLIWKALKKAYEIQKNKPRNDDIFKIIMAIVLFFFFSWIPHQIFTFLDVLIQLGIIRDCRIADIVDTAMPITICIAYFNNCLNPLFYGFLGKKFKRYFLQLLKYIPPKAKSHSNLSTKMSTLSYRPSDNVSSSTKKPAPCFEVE
Put plainly: AT1 radioligand binding assay (displacement of [Eu]AngII). Conditions: membranes of CHO-K1 cells expressing cloned human AT1 receptor; values given as lower bounds; read-out: AT1 pKi (converted). The essentials: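 Membranes from CHO-K1 cells stably expressing cloned human AT1, 0.2 μg protein, in 50 mM Tris/HCl pH 7.5, 5 mM MgCl2, 0.025% BSA. Compounds displaced [Eu]AngII over 120 min in the dark at room temperature or 37° C; filter-bound TRF read. Nonspecific binding with 10 μM angiotensin II; IC50 converted to Ki via Cheng-Prusoff, reported as pKi.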

SMILES strings stand for the structures. Bounds are passed on as bounds.

T1 sequence (P08473 52-750 limits assumed): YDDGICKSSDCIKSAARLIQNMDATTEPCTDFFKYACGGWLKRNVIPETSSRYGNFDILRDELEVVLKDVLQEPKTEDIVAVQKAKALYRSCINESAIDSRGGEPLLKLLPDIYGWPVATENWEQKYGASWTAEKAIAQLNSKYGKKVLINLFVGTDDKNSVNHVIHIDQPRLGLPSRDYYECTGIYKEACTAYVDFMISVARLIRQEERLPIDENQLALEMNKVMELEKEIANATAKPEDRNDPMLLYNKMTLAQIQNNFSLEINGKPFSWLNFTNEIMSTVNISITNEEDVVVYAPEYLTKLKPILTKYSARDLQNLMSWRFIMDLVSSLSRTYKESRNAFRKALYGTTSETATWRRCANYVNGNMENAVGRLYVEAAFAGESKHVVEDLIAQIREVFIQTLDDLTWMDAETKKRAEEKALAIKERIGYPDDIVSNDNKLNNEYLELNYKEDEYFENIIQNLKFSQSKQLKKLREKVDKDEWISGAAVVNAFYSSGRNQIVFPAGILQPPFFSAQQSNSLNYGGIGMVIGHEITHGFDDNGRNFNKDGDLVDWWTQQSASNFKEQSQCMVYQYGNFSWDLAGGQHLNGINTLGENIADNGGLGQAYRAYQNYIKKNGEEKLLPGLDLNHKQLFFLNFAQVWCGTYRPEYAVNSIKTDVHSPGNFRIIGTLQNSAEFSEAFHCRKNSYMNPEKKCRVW

Regarding `CCOc1cc(C(=O)N[C@@H](CS)CC(C)C)nn1Cc1ccc(-c2ccccc2-c2nnn[nH]2)cc1` [Example 3-5, 5-Ethoxy-1-[2′-(1H-tetrazol-5-yl)biphenyl-4-ylmethyl]-1H-pyrazole-3-carboxylic acid ((R)-1-mercaptomethyl-3-methylbutyl)amide], on NEP enzyme, the IC50 was at most 100 nM. Moreover, the Ki at human AT1 receptor is at most 100 nM.
Turning to `CCCc1cc(C(=O)N[C@@H](CC(=O)O)Cc2ccccc2Cl)nn1Cc1ccc(-c2ccccc2S(=O)(=O)NC(C)=O)nc1` [Example 14-14, (R)-3-({1-[6-(2-Acetylsulfamoylphenyl)-pyridin-3-ylmethyl]-5-propyl-1H-pyrazole-3-carbonyl}-amino)-4-(2-chlorophenyl)butyric acid], on NEP enzyme, the IC50 is at most 1000 nM. Besides, the Ki on human AT1 receptor is at most 10 nM.
For `CCCCc1cc(C(=O)N[C@@H](CS)Cc2ccccc2)nn1Cc1ccc(-c2ccccc2C(=O)O)cc1F` [Example 9-4, 4′-[3-((R)-1-Benzyl-2-mercaptoethylcarbamoyl)-5-butylpyrazol-1-ylmethyl]-3′-fluorobiphenyl-2-carboxylic acid], on NEP enzyme, the IC50 is at most 100 nM. In addition, the Ki at human AT1 receptor was at most 100 nM.
For the molecule `CCCc1cc(C(=O)N[C@H](Cc2ccccc2)[C@@H](O)C(=O)O)nn1Cc1ccc(-c2ccccc2S(=O)(=O)NC(=O)C2CC2)cc1` [Example 7-2, (2R,3R)-3-({1-[2′-(Cyclopropanecarbonylsulfamoyl)biphenyl-4-ylmethyl]-5-propyl-1H-pyrazole-3-carbonyl}amino)-2-hydroxy-4-phenylbutyric acid], the IC50 at NEP enzyme is at most 100 nM. Further, the Ki at human AT1 receptor is at most 10 nM.
On to `CCCc1cc(C(=O)N[C@H](Cc2ccccc2)[C@@H](O)C(=O)O)nn1Cc1c(F)cc(-c2ccccc2S(=O)(=O)NC(C)=O)cc1F` [Example 6-19, (2R,3R)-3-(1-((2′-(N-acetylsulfamoyl)-3,5-difluorobiphenyl-4-yl)methyl)-5-propyl-1H-pyrazole-3-carboxamido)-2-hydroxy-4-phenylbutanoic acid], for which the IC50 on NEP enzyme was at most 100 nM. For the same molecule, on human AT1 receptor, the Ki is at most 10 nM.
`CCCc1cc(C(=O)N[C@@H](CS)Cc2ccccc2)nn1Cc1ccc(-c2ccccc2S(=O)(=O)NC(C)=O)nc1` [Example 14-3, 1-[6-(2-Acetylsulfamoyl-phenyl)pyridin-3-ylmethyl]-5-propyl-1H-pyrazole-3-carboxylic acid ((R)-1-benzyl-2-mercaptoethyl)amide]: on NEP enzyme, the IC50 is at most 100 nM. Further, at human AT1 receptor, the Ki was at most 100 nM.
As to `CCCc1cc(C(=O)N[C@@H](CC(=O)O)Cc2ccccc2Cl)nn1Cc1ccc(-c2ccccc2-c2nnn[nH]2)nc1` [Example 10, (R)-4-(2-Chlorophenyl)-3-[(5-propyl-1-{6-[2-(1H-tetrazol-5-yl)phenyl]pyridin-3-ylmethyl}-1H-pyrazole-3-carbonyl)amino]butyric Acid], on NEP enzyme, the IC50 is at most 100 nM. The Ki at human AT1 receptor was at most 10 nM.
For `CCCc1cc(C(=O)N[C@@H](CS)Cc2ccccc2)nn1Cc1ccc(-c2ccccc2-c2nnn[nH]2)cc1F` [Example 3-2, 1-[3-Fluoro-2′-(1H-tetrazol-5-yl)biphenyl-4-ylmethyl]-5-propyl-1H-pyrazole-3-carboxylic acid ((R)-1-benzyl-2-mercaptoethyl)amide], in that order: at most 100 nM and at most 10 nM.
For `CCCc1cc(C(=O)N[C@H](Cc2ccccc2)[C@@H](O)C(=O)O)nn1Cc1ccc(-c2ccccc2S(=O)(=O)NC(=O)c2ccccc2F)cc1` [Example 7-3, (2R,3R)-3-({1-[2′-(2-Fluorobenzoylsulfamoyl)biphenyl-4-ylmethyl]-5-propyl-1H-pyrazole-3-carbonyl}amino)-2-hydroxy-4-phenylbutyric acid], the IC50 at NEP enzyme was at most 1000 nM. For the same molecule, on human AT1 receptor, the Ki is at most 10 nM.
The corresponding values for `CCCc1cc(C(=O)N[C@@H](CC(=O)O)Cc2ccccc2Br)nn1Cc1ccc(-c2ccccc2S(=O)(=O)NC(C)=O)cc1` [Example 6-8, (R)-3-{[1-(2′-Acetylsulfamoylbiphenyl-4-ylmethyl)-5-propyl-1H-pyrazole-3-carbonyl]amino}-4-(2-bromophenyl)butyric acid] are at most 1000 nM and at most 10 nM.
The corresponding values for `CCCc1cc(C(=O)N[C@H](CC(C)C)[C@@H](O)C(=O)O)nn1Cc1ccc(-c2ccccc2-c2nnn[nH]2)nc1` [Example 14-8, (2R,3R)-2-Hydroxy-5-methyl-3-[(5-propyl-1-{6-[2-(1H-tetrazol-5-yl)phenyl]pyridin-3-ylmethyl}-1H-pyrazole-3-carbonyl)amino]hexanoic acid] are at most 1000 nM and at most 10 nM.
For `CCCc1cc(C(=O)N[C@@H](CC(=O)O)Cc2ccccc2C)nn1Cc1ccc(-c2ccccc2S(=O)(=O)NC(C)=O)cc1` [Example 6-26, (R)-3-{[1-(2′-Acetylsulfamoylbiphenyl-4-ylmethyl)-5-propyl-1H-pyrazole-3-carbonyl]amino}-4-o-tolylbutyric acid], in that order: at most 1000 nM and at most 10 nM.
On to `CCCc1cc(C(=O)N[C@@H](CC(=O)O)Cc2ccccc2F)nn1Cc1ccc(-c2ccccc2-c2nnn[nH]2)cc1` [Example 3-33, (R)-4-(2-Fluorophenyl)-3-({5-propyl-1-[2′-(1H-tetrazol-5-yl)biphenyl-4-ylmethyl]-1H-pyrazole-3-carbonyl}amino)butyric acid], for which the IC50 on NEP enzyme is at most 10000 nM. Also, the Ki on human AT1 receptor was at most 10 nM.
Consider `CCCc1cc(C(=O)N[C@@H](CC(=O)O)Cc2ccccc2C)nn1Cc1ccc(-c2ccccc2-c2nnn[nH]2)cc1` [Example 3-35, (R)-3-({5-Propyl-1-[2′-(1H-tetrazol-5-yl)biphenyl-4-ylmethyl]-1H-pyrazole-3-carbonyl}amino)-4-o-tolylbutyric acid], for which, on NEP enzyme, the IC50 is at most 10000 nM. The Ki at human AT1 receptor is at most 10 nM.
For `CCCc1cc(C(=O)N[C@@H](CC(=O)NO)Cc2ccccc2Cl)nn1Cc1ccc(-c2ccccc2-c2nnn[nH]2)cc1` [Example 3-15, 5-Propyl-1-[2′-(1H-tetrazol-5-yl)-biphenyl-4-ylmethyl]-1H-pyrazole-3-carboxylic acid [(R)-2-(2-chlorophenyl)-1-hydroxycarbamoylmethylethyl]amide], in that order: at most 100 nM and at most 10 nM.
`CCCc1cc(C(=O)N[C@H](Cc2ccccc2)[C@@H](O)C(=O)O)nn1Cc1ccc(-c2ccccc2S(=O)(=O)NC(=O)NC)cc1` [Example 7-11, (2R,3R)-2-hydroxy-3-(1-((2′-(N-(methylcarbamoyl)sulfamoyl)biphenyl-4-yl)methyl)-5-propyl-1H-pyrazole-3-carboxamido)-4-phenylbutanoic acid]: at NEP enzyme, the IC50 was at most 100 nM. Moreover, at human AT1 receptor, the Ki is at most 10 nM.
The corresponding values for `CCCc1cc(C(=O)N[C@H](Cc2ccccc2)[C@@H](O)C(=O)O)nn1Cc1ccc(-c2ccccc2S(=O)(=O)NC(C)=O)cc1` [Example 4, (2R,3R)-3-(1-((2′-(N-Acetylsulfamoyl)biphenyl-4-yl)methyl)-5-propyl-1H-pyrazole-3-carboxamido)-2-hydroxy-4-phenylbutanoic Acid] are at most 100 nM and at most 10 nM.
For the molecule `CCCc1cc(C(=O)N[C@@H](CC(=O)O)Cc2ccccc2Cl)nn1Cc1ccc(-c2ccccc2S(=O)(=O)NC(=O)COC)cc1` [Example 7-18, (R)-4-(2-Chlorophenyl)-3-({1-[2′-(2-methoxyacetylsulfamoyl)biphenyl-4-ylmethyl]-5-propyl-1H-pyrazole-3-carbonyl}amino)butyric acid], on NEP enzyme, the IC50 is at most 1000 nM. Further, the Ki at human AT1 receptor was at most 10 nM.
For `CCCc1cc(C(=O)N[C@H](Cc2ccccc2Cl)[C@@H](O)C(=O)O)nn1Cc1ccc(-c2ccccc2S(=O)(=O)NC(C)=O)cc1` [Example 6-9, (2R,3R)-3-{[1-(2′-Acetylsulfamoylbiphenyl-4-ylmethyl)-5-propyl-1H-pyrazole-3-carbonyl]-amino}-4-(2-chlorophenyl)-2-hydroxy-butyric acid], in that order: at most 100 nM and at most 10 nM.
The corresponding values for `CCCc1cc(C(=O)N[C@@H](Cc2ccccc2)CN(O)C=O)nn1Cc1ccc(-c2ccccc2S(=O)(=O)NC(C)=O)cc1` [Example 6-22, 1-(2′-Acetylsulfamoylbiphenyl-4-ylmethyl)-5-propyl-1H-pyrazole-3-carboxylic acid [(S)-1-benzyl-2-(formylhydroxyamino)ethyl]amide] are at most 100 nM and at most 10 nM.
For `CCCc1cc(C(=O)N[C@@H](CC(=O)O)Cc2cccc(F)c2)nn1Cc1ccc(-c2ccccc2-c2nnn[nH]2)nc1` [Example 14-12, (R)-4-(3-Fluorophenyl)-3-[(5-propyl-1-{6-[2-(1H-tetrazol-5-yl)phenyl]pyridin-3-ylmethyl}-1H-pyrazole-3-carbonyl)amino]butyric acid], the IC50 at NEP enzyme is at most 100 nM. In addition, the Ki on human AT1 receptor is at most 10 nM.

The values are drawn from patent publication US8350027B2, “Dual-acting pyrazole antihypertensive agents” (Theravance, Inc., priority 2009, dated 2013).
